Data as given in ChEMBL document CHEMBL1201862, “PubChem BioAssay data set” (2004).
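96-well plates; 48 h exposure; 5 concentrations. Endpoints by linear interpolation between flanking doses. Not reached: highest tested concentration assigned. GI50 = concentration required for 50% inhibition of growth.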 Activity calls are given as the source filed them. Cut-off read from the data, not from the text of the source: active = GI50 up to about 1.1 µM and inactive = higher.

Tests used:
Assay in all cases: NCI anticancer screen, dose series, 48 h
786-0 = test system: 786-0
HCC 2998 = test system: HCC 2998
HL-60 = test system: HL-60
HOP-62 = test system: HOP-62
HOP-92 = test system: HOP-92
M14 = test system: M14
MOLT-4 = test system: MOLT-4
OVCAR-3 = test system: OVCAR-3
OVCAR-5 = test system: OVCAR-5
OVCAR-8 = test system: OVCAR-8
RXF 393 = test system: RXF 393
SK-MEL-28 = test system: SK-MEL-28
SK-OV-3 = test system: SK-OV-3
SNB-75 = test system: SNB-75
UO-31 = test system: UO-31
CAKI-1 = test system: CAKI-1
NCI-H460 = test system: NCI-H460
SF-539 = test system: SF-539
SK-MEL-2 = test system: SK-MEL-2

Measured: GI50

COc1ccc(-c2cc(O)c3cc(OC)ccc3n2)cc1
inactive: 786-0 > 100 µM | HCC 2998 5.74 µM | HL-60 > 100 µM | HOP-62 > 100 µM | HOP-92 > 100 µM | M14 > 100 µM | MOLT-4 > 100 µM | OVCAR-3 > 100 µM | OVCAR-5 > 100 µM | OVCAR-8 > 100 µM | RXF 393 > 100 µM | SK-MEL-28 > 100 µM | SK-OV-3 > 100 µM | SNB-75 92.9 µM | UO-31 > 100 µM

O=C1c2ccccc2C(=O)c2[nH]cnc21
inactive: 786-0 75.9 µM | CAKI-1 > 100 µM | HCC 2998 48.4 µM | HL-60 23.6 µM | HOP-62 > 100 µM | M14 41.4 µM | MOLT-4 49.5 µM | NCI-H460 32.1 µM | OVCAR-3 21.5 µM | OVCAR-8 34.7 µM | RXF 393 > 100 µM | SF-539 61.2 µM | SK-MEL-28 > 100 µM | SK-MEL-2 > 100 µM | UO-31 > 100 µM

COC(=O)C(=O)C(C(=O)C(=O)Nc1ccc([N+](=O)[O-])cc1C#N)c1nc2ccc([N+](=O)[O-])cc2nc1O (configuration not stated)
inactive: 786-0 > 100 µM | CAKI-1 94.6 µM | HL-60 > 100 µM | HOP-62 94.2 µM | HOP-92 93.1 µM | M14 > 100 µM | MOLT-4 > 100 µM | NCI-H460 > 100 µM | OVCAR-3 > 100 µM | OVCAR-5 > 100 µM | OVCAR-8 > 100 µM | RXF 393 > 100 µM | SF-539 > 100 µM | SK-MEL-2 > 100 µM | SK-OV-3 > 100 µM | SNB-75 > 100 µM | UO-31 > 100 µM

Nc1nc(-c2ccco2)cc(-c2ccc(CO)o2)n1
inactive: 786-0 > 100 µM | HL-60 > 100 µM | HOP-62 > 100 µM | M14 > 100 µM | MOLT-4 > 100 µM | NCI-H460 > 100 µM | OVCAR-3 > 100 µM | OVCAR-5 > 100 µM | OVCAR-8 > 100 µM | RXF 393 > 100 µM | SF-539 > 100 µM | SK-MEL-28 > 100 µM | SK-MEL-2 > 100 µM | SNB-75 72.9 µM | UO-31 60.3 µM

CCOC(=O)C1Cc2[nH]c3ccccc3c2C(C)C1C (configuration not stated)
inactive: 786-0 14.6 µM | CAKI-1 16.4 µM | HCC 2998 > 10 µM | HOP-92 15.7 µM | M14 16.7 µM | MOLT-4 10.8 µM | NCI-H460 17.3 µM | OVCAR-3 15.6 µM | OVCAR-5 17 µM | OVCAR-8 3.55 µM | SF-539 16.5 µM | SK-MEL-28 17.1 µM | SK-MEL-2 20.2 µM | SK-OV-3 18.9 µM | SNB-75 8.09 µM | UO-31 12.8 µM

CC12C/C(=C\c3ccccc3)C(=O)C3C1CCCC32
inactive: 786-0 95.9 µM | CAKI-1 > 100 µM | HCC 2998 44.5 µM | HL-60 21.5 µM | HOP-62 > 100 µM | HOP-92 > 100 µM | M14 > 100 µM | MOLT-4 21.5 µM | NCI-H460 > 100 µM | OVCAR-3 74.6 µM | OVCAR-5 > 100 µM | OVCAR-8 > 100 µM | SF-539 > 100 µM | SK-MEL-28 > 100 µM | SK-MEL-2 > 100 µM | SK-OV-3 > 100 µM | SNB-75 92.9 µM | UO-31 > 100 µM

CCOC(=O)c1ccc(/N=N/c2cc(C(=O)OCC)ccc2O)cc1
inactive: 786-0 76 µM | CAKI-1 46.6 µM | HL-60 > 100 µM | HOP-62 > 100 µM | HOP-92 > 100 µM | M14 > 100 µM | MOLT-4 80.7 µM | NCI-H460 > 100 µM | OVCAR-8 > 100 µM | RXF 393 > 100 µM | SF-539 > 100 µM | SK-MEL-28 > 100 µM | SK-OV-3 > 100 µM | UO-31 > 100 µM

CC(=O)OC1c2ccccc2CCCCCCC12OCCO2 (configuration not stated)
inactive: 786-0 > 100 µM | CAKI-1 51.9 µM | HCC 2998 > 100 µM | HL-60 44.3 µM | HOP-62 > 100 µM | M14 86.5 µM | MOLT-4 60.3 µM | NCI-H460 > 100 µM | OVCAR-3 33 µM | OVCAR-5 > 100 µM | OVCAR-8 > 100 µM | RXF 393 > 100 µM | SF-539 > 100 µM | SK-MEL-28 > 100 µM | SK-MEL-2 > 100 µM | SK-OV-3 > 100 µM | SNB-75 > 100 µM | UO-31 > 100 µM

O=C(CC1(O)C(=O)Nc2c(Cl)cc(Cl)cc21)c1cccc2ccccc12 (configuration not stated)
inactive: 786-0 15.8 µM | CAKI-1 11.8 µM | HL-60 10.5 µM | HOP-62 16.5 µM | M14 16.7 µM | MOLT-4 20 µM | NCI-H460 16.6 µM | OVCAR-3 16.1 µM | OVCAR-5 22.4 µM | OVCAR-8 18.1 µM | RXF 393 20.6 µM | SF-539 17.1 µM | SK-MEL-28 18.7 µM | SK-MEL-2 17.7 µM | SK-OV-3 16.6 µM | SNB-75 18.2 µM

CC(=O)OCCOCNC(=S)N/N=C/c1ccc(Br)s1
inactive: 786-0 > 76.6 µM | HCC 2998 > 100 µM | HOP-62 > 100 µM | HOP-92 > 100 µM | M14 > 100 µM | MOLT-4 > 26.1 µM | NCI-H460 78.3 µM | OVCAR-3 > 89.1 µM | OVCAR-5 > 100 µM | OVCAR-8 > 100 µM | RXF 393 > 100 µM | SF-539 > 100 µM | SK-MEL-28 > 100 µM | SK-MEL-2 > 100 µM | SK-OV-3 > 100 µM | SNB-75 > 100 µM | UO-31 > 100 µM

CS(=O)(=O)N(CCC#N)c1ccc(/C=N/NC(=O)CC(=O)Nc2cccc(Cl)c2)cc1
inactive: 786-0 > 100 µM | CAKI-1 > 100 µM | HCC 2998 > 100 µM | HOP-62 > 100 µM | M14 > 100 µM | MOLT-4 > 100 µM | NCI-H460 > 100 µM | OVCAR-3 > 100 µM | OVCAR-5 > 100 µM | OVCAR-8 > 100 µM | RXF 393 > 100 µM | SF-539 > 100 µM | SK-MEL-28 > 100 µM | SK-MEL-2 > 100 µM | SK-OV-3 > 100 µM | SNB-75 > 100 µM | UO-31 > 100 µM

O=C1C[C@@H]2[C@@H](c3ccccc3)[C@@H]3C(=O)c4ccccc4NC(=O)[C@H]3[C@]2(O)c2ccccc2N1
inactive: 786-0 > 100 µM | HL-60 > 100 µM | HOP-62 > 100 µM | M14 > 100 µM | MOLT-4 > 100 µM | NCI-H460 > 100 µM | OVCAR-3 > 100 µM | OVCAR-5 > 100 µM | OVCAR-8 > 100 µM | RXF 393 > 100 µM | SK-MEL-28 > 100 µM | SK-MEL-2 > 100 µM | SNB-75 > 100 µM | UO-31 > 100 µM

CCOC(=O)C/C(N)=C(\C#N)C(=O)OCC
inactive: 786-0 > 100 µM | CAKI-1 > 100 µM | HL-60 > 100 µM | HOP-92 > 100 µM | M14 > 100 µM | MOLT-4 > 100 µM | NCI-H460 > 100 µM | OVCAR-3 > 100 µM | OVCAR-5 > 100 µM | OVCAR-8 > 100 µM | RXF 393 > 100 µM | SF-539 > 100 µM | SK-MEL-28 > 100 µM | SK-MEL-2 > 100 µM | SK-OV-3 > 100 µM | SNB-75 > 100 µM | UO-31 > 100 µM

NCCN1C(=O)C2C3c4ccccc4C(c4ccccc43)C2C1=O (configuration not stated)
inactive: 786-0 > 100 µM | CAKI-1 > 100 µM | HCC 2998 > 100 µM | HL-60 > 100 µM | HOP-62 > 100 µM | HOP-92 28.2 µM | M14 > 100 µM | MOLT-4 > 100 µM | NCI-H460 > 100 µM | OVCAR-3 > 100 µM | OVCAR-5 > 100 µM | OVCAR-8 > 100 µM | SF-539 > 100 µM | SK-MEL-28 > 100 µM | SK-MEL-2 > 100 µM | SK-OV-3 > 100 µM | SNB-75 43.3 µM | UO-31 > 100 µM

O=C(C=C1SCCS1)/C=C\c1ccc(Cl)cc1
inactive: 786-0 > 100 µM | CAKI-1 > 100 µM | HCC 2998 26.4 µM | HL-60 56.9 µM | HOP-62 > 100 µM | HOP-92 > 100 µM | M14 > 100 µM | MOLT-4 > 100 µM | OVCAR-3 > 100 µM | OVCAR-8 > 100 µM | SF-539 > 100 µM | SK-MEL-28 > 100 µM | SK-MEL-2 > 100 µM | SK-OV-3 > 100 µM | SNB-75 > 100 µM | UO-31 > 100 µM

Cc1cc(-c2ccccc2)nc(Nc2nc3ccccc3o2)n1
inactive: 786-0 > 100 µM | CAKI-1 > 100 µM | HCC 2998 > 100 µM | HL-60 > 100 µM | HOP-62 > 100 µM | HOP-92 89.3 µM | M14 > 100 µM | MOLT-4 > 100 µM | NCI-H460 > 100 µM | OVCAR-3 > 100 µM | OVCAR-5 > 100 µM | OVCAR-8 > 100 µM | SF-539 > 100 µM | SK-MEL-28 > 100 µM | SK-MEL-2 > 100 µM | SK-OV-3 > 100 µM | UO-31 > 100 µM

Cn1c(=O)c2ccc(-c3ccc(Br)cc3)nc2n(C)c1=O
inactive: 786-0 > 100 µM | HCC 2998 > 100 µM | HL-60 > 100 µM | HOP-62 > 100 µM | HOP-92 > 100 µM | M14 > 100 µM | MOLT-4 > 100 µM | NCI-H460 > 100 µM | OVCAR-3 > 100 µM | OVCAR-5 > 100 µM | OVCAR-8 > 100 µM | SF-539 > 100 µM | SK-MEL-28 > 100 µM | SK-MEL-2 > 100 µM | SK-OV-3 > 100 µM | SNB-75 29.6 µM | UO-31 > 100 µM
